Values joined by “and” are separate entries in the source; they are usually repeats but may differ in a detail not shown here. Identical values can stand only once.

Data set [1] has as its system Hep G2 cells. As to the kind of experiment: Annexin V-FITC/PI flow cytometry (apoptosis), Hep G2. As to conditions: Hep G2, 72 h at IC50 concentration, mean ± S.E.M. It is filed as cell-based, human. How it is done: (§1) In consideration of the cytotoxic results of these triterpene conjugates with the three cell lines assayed, three MA–diamine–coumarin conjugates (1, 4, and 7) and the MA–coumarin conjugate 10 were selected for the following cytometry studies on the three cancer cell lines. Thus, the apoptotic determination assays were performed through double staining with Annexin V (An-V), conjugated fluorescein isothiocyanate (FITC), and propidium iodide (PI). […] The values of percentage of total apoptosis were expressed as means ± SEM of at least two duplicate experiments (Figure 1).
(§2) Apoptosis was assessed by flow cytometry using a FACScan (fluorescence-activated cell sorter) flow cytometer (Coulter Corporation, Hialeah, FL, USA). For these assays, 5 × 10^4 B16–F10, 6 × 10^4 HT29 cells, and 15 × 10^4 Hep G2 cells were placed in 24-well plates with 1.5 mL of medium and incubated for 24 h. Subsequently, the cells were treated with the selected compounds in triplicate for 72 h at their corresponding IC50 concentrations. The cells were collected and resuspended in a binding buffer (10 mM HEPES/NaOH, pH 7.4, 140 mM NaCl, 2.5 mM CaCl2). Annexin V-FITC conjugate (1 mg/mL) was then added and incubated for 15 min at room temperature in darkness. Just before the analysis by flow cytometry, cells were stained with 20 μL of 1 mg/mL PI solution. In each experiment, approximately 10 × 10^3 cells were analyzed, and the experiment was duplicated twice.

Data set [2] has as its system Hep G2 cells. The data set is described as follows: Mitochondrial-membrane potential (Rh123) flow cytometry, Hep G2. It is filed as cell-based, human. As to conditions: Hep G2, 72 h at IC50 concentration. How it is done: (§3) The study of the loss of the mitochondrial-membrane potential (MMP) of tumor cells, when treated with drugs, can provide information on the activation mechanism of apoptosis. This activation can occur extrinsically when MMP is not altered, and intrinsically when a loss of this potential is caused by mitochondrial disruption. […] The values of percentage of cell population were expressed as means ± SEM of at least two experiments in duplicate. Changes in MMP were analyzed by monitoring cell fluorescence after staining with rhodamine 123 (Rh123).
(§4) The electrochemical gradient across the mitochondrial membrane was examined by analytical flow cytometry, using dihydrorhodamine (DHR), which in contact with living cells, oxidized to form highly fluorescent rhodamine 123 (Rh123). The fluorescence emitted can be monitored by fluorescence spectroscopy using excitation and emission wavelengths of 500 and 536 nm, respectively. […] Following treatment, the culture medium was renewed with fresh medium by adding 0.5 mL of DHR, for a final concentration of […]. Cells were incubated for 1 h at 37 °C in an atmosphere of 5% CO2 and 95% humidity and subsequently washed and resuspended in PBS. The fluorescence intensity was measured using a FACScan flow cytometer (fluorescence-activated cell sorter). The experiments were performed three times with two replicates per assay.

The subject of data set [3] is HT29 cells. As to the kind of experiment: Mitochondrial-membrane potential (Rh123) flow cytometry, HT29. It is filed as cell-based, human. As to conditions: HT29, 72 h at IC50 concentration. How it is done:
as §3, §4

In data set [4] the test system is B16–F10 cells. The data set is described as follows: Annexin V-FITC/PI flow cytometry (apoptosis), B16–F10. It is filed as cell-based, murine. As to conditions: B16-F10, 72 h at IC50 concentration, mean ± S.E.M. How it is done:
as §1, §2

The subject of data set [5] is Hep G2 cells. As to the kind of experiment: Cell-cycle distribution by PI flow cytometry, Hep G2. It is filed as cell-based, human. As to conditions: Hep G2, 72 h at IC50 concentration. How it is done: (§5) Based on the cytotoxicity shown by derivatives 1, 4, 7, and 10, a study was made concerning their effects on the distribution of the cell cycle in order to determine possible cytostatic effects caused by the cytotoxic response. The percentages of cells in the different phases of the cycle were analyzed at 72 h, by the incorporation of propidium iodide. […] The values of cell percentage were expressed as means ± SEM of at least two independent experiments performed in triplicate. Flow cytometry was also used to measure DNA ploidy and alterations in cell-cycle profiles. The DNA content is proportional to the fluorescence of propidium iodide, enabling the percentage of cells to be determined in each phase of the cycle and the cell subpopulations with different DNA contents to be visualized.
(§6) The method used to quantify the amount of DNA in the different phases of the cell cycle (G0/G1, S, and G2/M) was performed by flow cytometry, using a fluorescence-activated cell sorter (FACS) at 488 nm in an Epics XL flow cytometer (Coulter Corporation, Hialeah, FL, USA). For this assay, 5 × 10^4 B16–F10, 6 × 10^4 HT29 cells, and 15 × 10^4 Hep G2 cells were placed in 24-well plates with 1.5 mL of medium and incubated for 24 h. After this time, the cells were treated with the different selected compounds for 72 h at their corresponding IC50 concentrations. After treatment, the cells were washed twice with PBS, trypsinized, and resuspended in 1X TBS (10 mM Tris and 150 mM NaCl); thereafter, Vindelov buffer (100 mM Tris, 100 mM NaCl, 10 mg/mL Rnase, and 1 mg/mL PI, at pH 8) was added. Cells were stored on ice and, just before measurement, were stained with 10 μL of 1 mg/mL PI solution. Approximately, 10 × 10^3 cells were analyzed in each experiment. The experiments were performed three times with two replicates per assay.

Data set [6] deals with B16–F10 cells. As to the kind of experiment: Cell-cycle distribution by PI flow cytometry, B16–F10. As to conditions: B16–F10, 72 h at IC50 concentration. It is filed as cell-based, murine. How it is done: as §5, §6
Data set [7] has as its system HT29 cells. The data set is described as follows: Cell-cycle distribution by PI flow cytometry, HT29. It is filed as cell-based, human. As to conditions: HT29, 72 h at IC50 concentration. How it is done:
as §5, §6

Compound `CC1(C)CC[C@]2(C(=O)NCCCNC(=O)c3cc4ccccc4oc3=O)CC[C@]3(C)C(=CC[C@@H]4[C@@]5(C)C[C@@H](O)[C@H](O)C(C)(C)[C@@H]5CC[C@]43C)[C@@H]2C1` [Compound 1, 2α,3β-Dihydroxy-N-(3′-(2″-oxo-2″H-chromene-3″-carboxamido)propyl)olean-12-en-28-amide] gave a melting point of 69 to 71 °C. Also, in data set [1], the “Early Apoptosis” value is reported as 50.1 ± 4.5%, the “Late Apoptosis” value is 19.4 ± 4.8%, the Necrosis was found to be 1.8 ± 0.4% and the “Total Apoptosis” value amounted to 69.5 ± 2.3%. Further, the “Viable Cells” value in data set [1] stood at 28.8 ± 2.8%. Also, the “Rh123 staining (mitochondrial-membrane potential)” value (shortened to “Rh123 staining”) in data set [2] is recorded as “negative Rh123 staining”. For the same compound, the “Rh123 staining” value in data set [3] is reported as “positive Rh123 staining”. For the same compound, in data set [4], the “Early Apoptosis” value came to 48.5 ± 2.8%, the “Late Apoptosis” value came to 19.4 ± 4.2%, the Necrosis is on record as 1.7 ± 0.4% and the “Total Apoptosis” value amounted to 67.9 ± 1.5%. For the same compound, in data set [4], the “Viable Cells” value is 30.5 ± 1.9%. Besides, the “percentage of cells in the G0/G1 phase” value in data set [5] is “greater than 70%”.

Regarding `CC1(C)CC[C@]2(C(=O)NCCCNC(=O)Cc3cc(=O)oc4cc(O)ccc34)CC[C@]3(C)C(=CC[C@@H]4[C@@]5(C)C[C@@H](O)[C@H](O)C(C)(C)[C@@H]5CC[C@]43C)[C@@H]2C1` [Compound 4, 2α,3β-Dihydroxy-N-(3′-(2″-(7‴-hydroxy-2‴-oxo-2‴H-chromen-4‴-yl)acetamido)propyl)olean-12-en-28-amide], the melting point was 143 to 145 °C. In data set [1], the “Early Apoptosis” value was 48.5 ± 3.8%, the “Late Apoptosis” value is listed as 20.1 ± 5.3%, the Necrosis is listed as 1.9 ± 0.2% and the “Total Apoptosis” value amounted to 68.5 ± 1.6%. Moreover, the “Viable Cells” value in data set [1] was 29.7 ± 1.3%. The “percentage of cells in the G0/G1 phase” value in data set [6] is “greater than 70%”. In addition, the “Rh123 staining” value in data set [2] was “negative Rh123 staining”. Moreover, the “Rh123 staining” value in data set [3] is “positive Rh123 staining”. In addition, the “percentage of cells in the G0/G1 phase” value in data set [7] is reported as “greater than 70%”. Also, in data set [4], the “Early Apoptosis” value came out at 74.9 ± 2.6%; the “Late Apoptosis” value is given as 10.5 ± 1.4%; the Necrosis was 0.7 ± 0.0%; the “Total Apoptosis” value is 85.4 ± 3.0% and 85%. Further, in data set [4], the “Viable Cells” value is listed as 14.0 ± 3.9%. In addition, in data set [5], the “percentage of cells in the G0/G1 phase” value was “greater than 70%”.

`CC1(C)CC[C@]2(C(=O)NCCCNC(=O)/C=C/c3ccc(O)cc3)CC[C@]3(C)C(=CC[C@@H]4[C@@]5(C)C[C@@H](O)[C@H](O)C(C)(C)[C@@H]5CC[C@]43C)[C@@H]2C1` [Compound 7, 2α,3β-Dihydroxy-N-(3′-((E)-3″-(4‴-hydroxyphenyl)acrylamido)propyl)olean-12-en-28-amide] had a melting point of 123 to 125 °C. Moreover, in data set [1], the “Early Apoptosis” value was 57.4 ± 4.3%; the “Late Apoptosis” value worked out at 18.6 ± 3.2%; the Necrosis turned out to be 2.2 ± 0.6%; the “Total Apoptosis” value was 75.9 ± 2.0% and 76%. Further, the “Viable Cells” value in data set [1] was determined as 21.9 ± 1.3%. Also, the “percentage of cells in the G0/G1 phase” value in data set [6] is on record as “greater than 70%”. Also, in data set [3], the “Rh123 staining” value was “positive Rh123 staining”. In addition, the “percentage of cells in the G0/G1 phase” value in data set [7] is on record as “greater than 70%”. Also, in data set [4], the “Early Apoptosis” value stood at 39.0 ± 4.1%, the “Late Apoptosis” value stood at 18.6 ± 0.1%, the Necrosis worked out at 3.1 ± 0.6% and the “Total Apoptosis” value was 57.6 ± 3.2%. Also, the “Viable Cells” value in data set [4] is listed as 39.3 ± 3.5%. In data set [5], the “percentage of cells in the G0/G1 phase” value is reported as “greater than 70%”.

Take `CC1(C)CC[C@]2(C(=O)O)CC[C@]3(C)C(=CC[C@@H]4[C@@]5(C)C[C@@H](OC(=O)c6cc7ccccc7oc6=O)[C@H](OC(=O)c6cc7ccccc7oc6=O)C(C)(C)[C@@H]5CC[C@]43C)[C@@H]2C1` [Compound 10]: the melting point fell in the range of 200 to 202 °C. For the same compound, in data set [1], the “Early Apoptosis” value is listed as 19.2 ± 4.9%, the “Late Apoptosis” value is 21.6 ± 3.2%, the Necrosis amounted to 4.2 ± 1.1% and the “Total Apoptosis” value stood at 40.8 ± 3.2%. In data set [1], the “Viable Cells” value was determined as 55.0 ± 1.4%. The “percentage of cells in the G0/G1 phase” value in data set [6] is recorded as “greater than 70%”. Also, the “Rh123 staining” value in data set [2] is listed as “negative Rh123 staining”. In addition, the “Rh123 staining” value in data set [3] is given as “positive Rh123 staining”. For the same compound, in data set [7], the “percentage of cells in the G0/G1 phase” value is “greater than 70%”. For the same compound, in data set [4], the “Early Apoptosis” value came to 18.1 ± 3.0%, the “Late Apoptosis” value was 22.9 ± 3.8%, the Necrosis was found to be 5.7 ± 0.8% and the “Total Apoptosis” value is on record as 41.0 ± 1.7%. In addition, the “Viable Cells” value in data set [4] is listed as 53.4 ± 2.9%. Also, the “percentage of cells in the G0/G1 phase” value in data set [5] is recorded as “greater than 70%”.

These data come from paper PMC8476055, “Synthesis and Biological Activity of Triterpene–Coumarin Conjugates” (Journal of Natural Products, 2021).
